Results published in the supplement of paper PMC12463676, “Small-molecule dissolution of stress granules by redox modulation benefits ALS models” (Nature Chemical Biology, 2025).

Columns and labels:
potassium arsenate = compound: O=[As]([O-])(O)O.[K+] [potassium arsenate]; test: thermal stability z-score vs DMSO; higher = more thermally stabilized by treatment; conditions: HeLa; arsenate concentration 1 mM
Protocol: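 Cellular thermal proteome profiling in HeLa cells treated with 1 mM arsenate for 1 h (DMSO pretreatment), heated to ten temperatures (37-66.3 °C). Soluble protein was quantified by TMT mass spectrometry relative to DMSO controls; the thermal stability score was transformed to a z-score; mean of n = 3 experiments.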

lipoamide = compound: NC(=O)CCCCC1CCSS1 [lipoamide]; test: as above; conditions: HeLa, lipoamide concentration 100 µM
Protocol: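 Cellular thermal proteome profiling in HeLa cells. Cells were treated with 100 µM lipoamide for 1 h, with or without 1 mM arsenate for a further 1 h, then heated to ten temperatures (37-66.3 °C), and soluble protein was quantified by TMT mass spectrometry relative to 0.1% DMSO controls. The thermal stability score (sum of log2 fold changes minus the abundance score) was transformed to a z-score; mean of n = 3 experiments.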

[1] = arsenate co-treatment: 1 mM arsenate 1 h
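Also: each temperature applied for 3 min, abundance score taken as mean log2 fold change at the two lowest temperatures, z-score obtained by mean subtraction and division by SD.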

Chain of UniProt Q96LD4 (Q96LD4 whole entry): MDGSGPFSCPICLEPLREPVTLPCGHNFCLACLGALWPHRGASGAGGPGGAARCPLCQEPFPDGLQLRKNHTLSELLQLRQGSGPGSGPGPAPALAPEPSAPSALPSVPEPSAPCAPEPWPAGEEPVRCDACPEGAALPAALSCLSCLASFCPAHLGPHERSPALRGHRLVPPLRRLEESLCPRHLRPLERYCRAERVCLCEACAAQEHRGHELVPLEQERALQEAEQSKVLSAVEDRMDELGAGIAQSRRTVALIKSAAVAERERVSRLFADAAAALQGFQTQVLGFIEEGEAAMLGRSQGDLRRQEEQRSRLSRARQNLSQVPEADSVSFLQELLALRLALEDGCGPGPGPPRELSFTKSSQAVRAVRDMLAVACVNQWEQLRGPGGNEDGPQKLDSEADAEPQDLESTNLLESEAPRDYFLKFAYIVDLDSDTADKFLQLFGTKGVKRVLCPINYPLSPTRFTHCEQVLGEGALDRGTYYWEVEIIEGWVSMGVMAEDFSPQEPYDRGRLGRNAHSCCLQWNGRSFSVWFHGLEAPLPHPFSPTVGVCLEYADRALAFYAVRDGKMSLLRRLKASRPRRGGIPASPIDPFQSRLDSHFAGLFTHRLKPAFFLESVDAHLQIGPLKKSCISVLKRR
Chain of UniProt O43399 (O43399 whole entry): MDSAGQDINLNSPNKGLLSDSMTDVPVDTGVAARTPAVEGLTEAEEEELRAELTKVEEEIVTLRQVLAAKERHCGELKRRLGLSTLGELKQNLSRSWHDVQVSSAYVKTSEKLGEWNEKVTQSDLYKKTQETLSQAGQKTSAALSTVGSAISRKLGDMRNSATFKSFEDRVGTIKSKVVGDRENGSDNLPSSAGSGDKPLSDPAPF
Chain of UniProt O00635 (O00635 whole entry): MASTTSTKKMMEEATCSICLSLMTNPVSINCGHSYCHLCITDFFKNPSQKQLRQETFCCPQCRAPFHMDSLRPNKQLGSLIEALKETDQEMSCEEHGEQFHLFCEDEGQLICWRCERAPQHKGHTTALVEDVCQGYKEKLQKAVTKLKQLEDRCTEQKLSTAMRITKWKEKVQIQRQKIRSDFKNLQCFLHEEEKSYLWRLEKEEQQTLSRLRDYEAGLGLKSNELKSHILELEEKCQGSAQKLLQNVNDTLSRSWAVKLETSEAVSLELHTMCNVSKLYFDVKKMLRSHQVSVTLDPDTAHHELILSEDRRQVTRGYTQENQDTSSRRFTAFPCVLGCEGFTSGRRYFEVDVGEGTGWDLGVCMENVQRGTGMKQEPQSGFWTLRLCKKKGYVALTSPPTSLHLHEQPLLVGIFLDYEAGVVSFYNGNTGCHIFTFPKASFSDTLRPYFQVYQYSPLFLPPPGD
Chain of UniProt Q15643 (Q15643 whole entry): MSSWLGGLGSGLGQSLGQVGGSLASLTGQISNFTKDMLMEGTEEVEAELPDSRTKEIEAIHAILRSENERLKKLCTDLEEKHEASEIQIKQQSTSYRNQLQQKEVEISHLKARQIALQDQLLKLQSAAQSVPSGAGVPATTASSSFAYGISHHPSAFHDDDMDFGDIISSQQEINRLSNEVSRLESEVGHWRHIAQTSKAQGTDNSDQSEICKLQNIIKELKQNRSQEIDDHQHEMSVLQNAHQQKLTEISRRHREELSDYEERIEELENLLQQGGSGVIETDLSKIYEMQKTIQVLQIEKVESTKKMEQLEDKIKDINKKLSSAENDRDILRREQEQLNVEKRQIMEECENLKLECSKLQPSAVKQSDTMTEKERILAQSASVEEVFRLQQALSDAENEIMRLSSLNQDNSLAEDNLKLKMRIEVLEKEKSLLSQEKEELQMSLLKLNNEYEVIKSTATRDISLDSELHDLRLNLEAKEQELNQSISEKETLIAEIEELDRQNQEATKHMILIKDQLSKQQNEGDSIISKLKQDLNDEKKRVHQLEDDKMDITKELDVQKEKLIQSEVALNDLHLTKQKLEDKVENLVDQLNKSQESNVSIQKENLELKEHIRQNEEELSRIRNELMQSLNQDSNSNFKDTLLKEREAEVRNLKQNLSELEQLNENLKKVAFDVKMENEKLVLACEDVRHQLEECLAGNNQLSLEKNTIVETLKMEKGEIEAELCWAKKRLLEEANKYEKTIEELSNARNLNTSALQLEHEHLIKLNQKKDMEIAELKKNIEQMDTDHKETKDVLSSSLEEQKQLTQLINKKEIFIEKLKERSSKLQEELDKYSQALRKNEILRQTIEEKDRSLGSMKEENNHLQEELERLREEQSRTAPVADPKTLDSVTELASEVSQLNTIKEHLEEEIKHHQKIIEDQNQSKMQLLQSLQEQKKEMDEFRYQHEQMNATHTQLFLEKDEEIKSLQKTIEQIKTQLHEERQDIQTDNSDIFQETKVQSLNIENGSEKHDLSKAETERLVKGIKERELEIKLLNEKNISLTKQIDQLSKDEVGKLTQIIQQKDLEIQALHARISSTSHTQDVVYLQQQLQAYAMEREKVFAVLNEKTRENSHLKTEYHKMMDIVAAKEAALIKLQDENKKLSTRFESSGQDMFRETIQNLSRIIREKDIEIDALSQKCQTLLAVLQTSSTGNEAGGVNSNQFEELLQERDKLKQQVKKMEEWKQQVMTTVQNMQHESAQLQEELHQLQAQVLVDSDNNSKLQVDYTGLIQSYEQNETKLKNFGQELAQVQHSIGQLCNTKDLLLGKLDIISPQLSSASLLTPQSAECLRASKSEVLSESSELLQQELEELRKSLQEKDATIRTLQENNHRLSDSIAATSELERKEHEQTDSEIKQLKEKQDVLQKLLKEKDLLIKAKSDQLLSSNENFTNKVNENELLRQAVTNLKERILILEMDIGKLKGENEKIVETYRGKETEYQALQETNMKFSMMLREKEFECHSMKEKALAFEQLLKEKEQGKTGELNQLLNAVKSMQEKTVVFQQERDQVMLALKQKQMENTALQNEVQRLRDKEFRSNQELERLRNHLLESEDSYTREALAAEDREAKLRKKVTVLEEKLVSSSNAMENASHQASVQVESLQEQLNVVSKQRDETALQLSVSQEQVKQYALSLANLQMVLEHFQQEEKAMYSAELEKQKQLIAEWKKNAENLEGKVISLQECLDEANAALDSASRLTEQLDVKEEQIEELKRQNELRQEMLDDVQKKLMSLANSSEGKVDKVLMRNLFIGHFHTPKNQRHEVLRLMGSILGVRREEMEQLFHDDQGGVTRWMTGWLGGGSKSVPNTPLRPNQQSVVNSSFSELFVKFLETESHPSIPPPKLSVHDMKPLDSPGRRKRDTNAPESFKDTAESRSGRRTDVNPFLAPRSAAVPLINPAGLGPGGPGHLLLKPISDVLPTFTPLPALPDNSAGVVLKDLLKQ
Chain of UniProt P60174 (P60174 whole entry): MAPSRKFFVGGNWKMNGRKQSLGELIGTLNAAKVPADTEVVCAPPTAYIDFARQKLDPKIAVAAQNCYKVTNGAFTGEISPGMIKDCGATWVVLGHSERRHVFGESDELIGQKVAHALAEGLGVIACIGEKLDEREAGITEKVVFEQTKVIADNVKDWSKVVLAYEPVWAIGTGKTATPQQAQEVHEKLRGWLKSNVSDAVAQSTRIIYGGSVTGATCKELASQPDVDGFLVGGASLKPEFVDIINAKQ
Chain of UniProt Q13049 (Q13049 whole entry): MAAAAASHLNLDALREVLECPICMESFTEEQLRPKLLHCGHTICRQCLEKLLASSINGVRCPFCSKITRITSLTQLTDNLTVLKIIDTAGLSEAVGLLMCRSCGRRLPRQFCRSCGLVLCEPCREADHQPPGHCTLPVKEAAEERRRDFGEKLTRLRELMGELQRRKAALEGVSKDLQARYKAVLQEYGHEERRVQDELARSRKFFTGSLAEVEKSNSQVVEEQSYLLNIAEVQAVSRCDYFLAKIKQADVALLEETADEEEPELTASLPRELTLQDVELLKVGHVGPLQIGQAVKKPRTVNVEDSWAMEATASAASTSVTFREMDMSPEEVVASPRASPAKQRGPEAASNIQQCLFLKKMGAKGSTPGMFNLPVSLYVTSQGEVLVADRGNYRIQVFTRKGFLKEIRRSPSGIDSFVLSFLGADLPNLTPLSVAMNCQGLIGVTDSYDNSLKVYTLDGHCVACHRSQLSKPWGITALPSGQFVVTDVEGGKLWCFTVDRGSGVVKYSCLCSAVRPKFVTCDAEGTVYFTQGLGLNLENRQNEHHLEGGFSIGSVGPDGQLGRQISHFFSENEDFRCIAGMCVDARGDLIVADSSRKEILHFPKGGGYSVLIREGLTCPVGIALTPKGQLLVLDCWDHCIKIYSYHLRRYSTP
Chain of UniProt P19474 (P19474 whole entry): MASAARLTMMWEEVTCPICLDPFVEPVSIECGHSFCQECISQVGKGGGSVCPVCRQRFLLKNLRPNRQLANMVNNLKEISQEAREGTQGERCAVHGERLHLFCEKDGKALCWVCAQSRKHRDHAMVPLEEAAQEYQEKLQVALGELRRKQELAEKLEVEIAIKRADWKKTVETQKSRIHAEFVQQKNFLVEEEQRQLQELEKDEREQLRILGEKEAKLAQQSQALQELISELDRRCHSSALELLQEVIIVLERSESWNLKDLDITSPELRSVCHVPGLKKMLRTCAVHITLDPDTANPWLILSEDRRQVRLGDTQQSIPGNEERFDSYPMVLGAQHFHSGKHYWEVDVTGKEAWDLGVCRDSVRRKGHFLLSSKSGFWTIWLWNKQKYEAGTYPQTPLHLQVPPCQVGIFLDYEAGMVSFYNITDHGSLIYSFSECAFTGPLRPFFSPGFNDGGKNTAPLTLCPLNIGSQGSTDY
Chain of UniProt Q9H4I3 (Q9H4I3 whole entry): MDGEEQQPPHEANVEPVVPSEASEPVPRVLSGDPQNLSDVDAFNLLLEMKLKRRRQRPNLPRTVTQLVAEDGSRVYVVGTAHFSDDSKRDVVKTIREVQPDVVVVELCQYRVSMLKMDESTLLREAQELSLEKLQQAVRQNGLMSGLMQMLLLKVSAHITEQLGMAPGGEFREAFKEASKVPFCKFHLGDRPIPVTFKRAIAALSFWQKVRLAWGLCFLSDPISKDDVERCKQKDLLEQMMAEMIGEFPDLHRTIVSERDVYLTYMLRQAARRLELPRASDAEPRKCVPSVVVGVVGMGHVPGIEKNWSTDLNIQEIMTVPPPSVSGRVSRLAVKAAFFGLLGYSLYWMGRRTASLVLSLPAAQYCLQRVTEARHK

Target	thermal stability z-score (potassium arsenate)	thermal stability z-score (lipoamide; [1])	thermal stability z-score (lipoamide; arsenate co-treatment: none)
TPBG (UniProt Q13641)	-0.766	-0.727	-0.884
TPCN1 (UniProt Q9ULQ1)	-0.538	0.0393	-0.00808
TPD52 (UniProt P55327)	1.35	2.04	2.1
TPD52L1 (UniProt Q16890)	0.237	0.471	0.545
TPD52L2 (UniProt O43399)	0.621	1.01	1.19
TPI1 (UniProt P60174)	-0.48	0.408	0.0882
TPM1 (UniProt P09493)	-0.151	0.347	0.422
TPM2 (UniProt P07951)	-0.068	0.624	0.462
TPM3 (UniProt P06753)	0.131	0.676	0.821
TPM4 (UniProt P67936)	-0.0802	0.31	0.407
TPMT (UniProt P51580)	-0.162	0.308	0.31
TPP1 (UniProt O14773)	-0.0975	-0.299	-0.137
TPP2 (UniProt P29144)	0.194	0.657	0.44
TPPP (UniProt O94811)	-0.479	-0.836	0.123
TPR (UniProt P12270)	-2.19	2.13	1.1
TPRA1 (UniProt Q86W33)	0.19	-0.68	-0.251
TPRG1L (UniProt Q5T0D9)	0.921	-0.302	0.421
TPRKB (UniProt Q9Y3C4)	-0.881	-0.134	-0.764
TPT1 (UniProt P13693)	-0.445	0.494	0.196
TPX2 (UniProt Q9ULW0)	0.448	0.967	0.322
TRA2B (UniProt P62995)	-0.649	2.37	-0.56
TRABD2A (UniProt Q86V40)	0.517	-0.806	-1.21
TRABD (UniProt Q9H4I3)	-0.0912	0.366	0.172
TRADD (UniProt Q15628)	-0.497	0.0371	0.0442

Target	thermal stability z-score (potassium arsenate)	thermal stability z-score (lipoamide; [1])	thermal stability z-score (lipoamide; arsenate co-treatment: none)
TRAF2 (UniProt Q12933)	-4.2	-0.41	-0.458
TRAF3IP1 (UniProt Q8TDR0)	0.694	0.519	0.373
TRAF3IP2 (UniProt O43734)	-0.155	-0.106	-0.159
TRAF4 (UniProt Q9BUZ4)	-4.33	-0.818	-0.748
TRAF6 (UniProt Q9Y4K3)	-0.00689	-0.0771	-0.0851
TRAF7 (UniProt Q6Q0C0)	-1.01	0.0114	-0.686
TRAFD1 (UniProt O14545)	-2.25	-1.34	-0.816
TRAM1 (UniProt Q15629)	0.968	-0.499	-1.11
TRAP1 (UniProt Q12931)	-0.477	-1.2	0.188
TRAPPC1 (UniProt Q9Y5R8)	0.484	0.425	0.512
TRAPPC2L (UniProt Q9UL33)	-0.119	-0.426	0.338
TRAPPC3 (UniProt O43617)	0.422	0.589	-0.0881
TRAPPC4 (UniProt Q9Y296)	-0.0725	-0.271	0.0129
TRAPPC5 (UniProt Q8IUR0)	0.00376	1.28	-0.246
TRAPPC6B (UniProt Q86SZ2)	-0.511	-0.428	-1.19
TRAPPC8 (UniProt Q9Y2L5)	0.311	0.257	0.348
TRAPPC9 (UniProt Q96Q05)	0.167	0.0964	-0.258
TRAPPC10 (UniProt P48553)	0.381	0.191	0.411
TRAPPC11 (UniProt Q7Z392)	-0.537	-0.549	-1.8
TRAPPC12 (UniProt Q8WVT3)	0.0727	-0.757	-1.04
TRAPPC13 (UniProt A5PLN9)	-0.371	0.252	-0.0347
TREX1 (UniProt Q9NSU2)	-2.07	-0.5	-0.0932
TRIM3 (UniProt O75382)	-0.044	0.012	0.061
TRIM4 (UniProt Q9C037)	-0.143	-0.218	0.0313

Target	thermal stability z-score (potassium arsenate)	thermal stability z-score (lipoamide; [1])	thermal stability z-score (lipoamide; arsenate co-treatment: none)
TRIM5 (UniProt Q9C035)	0.259	0.224	0.183
TRIM11 (UniProt Q96F44)	-1.05	-0.68	-1.71
TRIM16 (UniProt O95361)	-0.0294	-0.0466	-0.0815
TRIM21 (UniProt P19474)	0.307	-0.677	-0.149
TRIM24 (UniProt O15164)	-0.334	0.0835	0.184
TRIM25 (UniProt Q14258)	-0.882	-0.86	-0.867
TRIM26 (UniProt Q12899)	0.295	-0.368	-0.0684
TRIM27 (UniProt P14373)	-0.874	0.641	-0.0794
TRIM28 (UniProt Q13263)	-1.49	-0.138	0.0166
TRIM29 (UniProt Q14134)	-0.177	-0.0886	0.185
TRIM32 (UniProt Q13049)	-3.56	-0.257	-0.125
TRIM33 (UniProt Q9UPN9)	-0.3	0.838	1.24
TRIM38 (UniProt O00635)	-0.447	-0.0725	-0.0917
TRIM44 (UniProt Q96DX7)	0.419	0.0927	-0.409
TRIM47 (UniProt Q96LD4)	0.944	-0.148	-0.0936
TRIM56 (UniProt Q9BRZ2)	-3.98	-0.0694	-0.839
TRIM65 (UniProt Q6PJ69)	-0.189	-0.203	-0.225
TRIO (UniProt O75962)	0.0185	-0.939	-0.335
TRIOBP (UniProt Q9H2D6)	0.379	-0.339	-0.147
TRIP4 (UniProt Q15650)	-0.932	0.243	0.422
TRIP6 (UniProt Q15654)	-5.81	-1.35	-0.966
TRIP10 (UniProt Q15642)	-0.0864	0.15	0.0699
TRIP11 (UniProt Q15643)	0.782	-2.35	-0.484
